How the values were obtained:
[1] = system: mouse primary spiral ganglion neurons; assay: Reversal of FAM19A5-induced inhibition of neurite outgrowth; assay type: cell-based; conditions: FAM19A5 protein 10 μM alone, treated 0 DIV, NF200 staining at 3 DIV
Protocol: Sprial ganglion neuron were cultured in culture media consisting of high-glucose (4.5 mg/mL) DMEM, 0.1 mg/ml penicillin, 0.1 mg/mL streptomycin, N2 supplement, and 10 µg/mL insulin and was designated here as “5K” because in this media, [K+]=5.4 mM. A depolarizing media, designated as “30K,” in which Na was replaced with equimolar K to raise [K] to 30 mM while maintaining osmolarity was also used.
Dissociated spiral ganglion cell cultures were prepared from postnatal day 4-5 (P4-5) cochleae and maintained using a procedure modified from the methods described by Bok et al., J Neurosci 23 (3): 777-87 (2003), which is incorporated herein by reference in its entirety. […]
Neurite outgrowth was quantified by measuring the total length of neurites per neuron. Neurons were stained with NF200 at either 2 or 3 DIV, and neurite lengths were measured using the Fiji (Image J). Individual neurons were manually selected, and neurite lengths were determined using the Simple Neurite Tracer plugin.
Briefly, mouse primary spiral ganglion neurons (cultured and processed as described in Example 11) were treated with a FAM19A5 protein (10 μM) alone or in combination with an anti-FAM19A5 antibody (1-30) (100 nM) at 0 DIV (day in vitro). […] Then, at 3 DIV, the neurons were stained for neurofilament protein (NF200) expression and the average neurite length quantified.

[2] = system: inner hair cells of mouse cochlear explant; assay: Reversal of FAM19A5-induced inhibition of synaptogenesis (CtBP2 puncta); assay type: cell-based; conditions: FAM19A5 protein 1 μM alone, treated 1 DIV, stained 2 DIV
Protocol: Cochlear explant were cultured in medium consisting of plating media, which consist of Neurobasal media (Invitrogen), 1% N2 supplement, and 10 μg/mL Ampicillin with culture media with additional 1% FBS.
Postnatal day 4-5 (P4-5) C57BL/6 mice were sacrificed for inner ear dissection. Mouse head was bisected, and brain tissue was removed. Cochlea was carefully separated the from the extraneous bones in ice-cold HBSS (5 mM HEPES/1.3 mM CaCl2), 0.9 mM MgCl2, pH 7.4) or External solution (1.2 mM CaCl2), 1 mM MgCl2, 5 mM HEPES in HBSS). Then the stria vascularis and spiral bone plate was removed, and cochlea was cut into two to three sections. […]
Mouse cochlear explant cultures were treated with FAM19A5, FAM19A5 combined with a FAM19A5 antagonist (e.g., described herein, e.g., 1-30 antibody), or a FAM19A5 antagonist (e.g., described herein, e.g., 1-30 antibody) alone at 1 DIV to determine the level of synaptogenesis at 2 DIV by immunostaining CtBP2, a ribbon synapse marker. To quantify the number of CtBP2 puncta of individual inner hair cells, z-stack confocal images were exported in “multi-page” and the number of CtBP2 puncta from each individual inner hair cells were measured using ROI manger and multi-point tool from Fiji (Image J). Number of CtBP2 puncta from five individual inner hair cells were counted per image and 3 z-stack images were measured from each treatment group. […]

Substance: FAM19A5 protein: FAM19A5 protein added to neuron and cochlear explant cultures to inhibit neurite outgrowth and synaptogenesis
- total neurite length vs non-treated cells [1]: significantly reduced
- number of CtBP2 puncta in inner hair cells vs control group [2]: significantly decreased
